The text below walks through data of patent US4450269A, “Mono-5-substituted-3-chloro-4H-1,2,6-thiadiazin-4-one antifungal agents” (FMC Corporation, priority 1980, dated 1984).

Common to all, as to assay: Spore germination test
What all share (format): cell-based

Assay [1] has as its system Botrytis cinerea. The following applies: BC, 48 hours. The procedure, abridged:
(§1)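 Compound was delivered in acetone into water agar at final 40, 10, 2.5 and 1 ppm. Alternaria solani and Botrytis cinerea spores were applied as sterile-water suspensions, while Erysiphe polygoni and Uromyces phaseoli spores were brushed on from infected leaves. After 48 h at 24° C., percentage germination was converted to a rating.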

The test system of assay [2] is Uromyces phaseoli. As to conditions: UP, 48 hours. The procedure, abridged: as §1
The subject of assay [3] is Alternaria solani. The following applies: AS, 48 hours. The procedure, abridged: as §1

Where a name gives a salt, the structure may show the parent alone.

Consider `Cc1ccc(Oc2nsnc(Cl)c2=O)c(C)c1` [Compound 23, 3-chloro-5-(2,4-dimethylphenoxy)-4H--1,2,6-thiadiazin-4-one], for which the “Spore Germination Rating” value in assay [1] (1.0 ppm) is listed as 4 (80-100); in assay [1] (2.5 ppm), 4 (80-100); in assay [1] (10 ppm) it was 4 (80-100); in assay [1] (40 ppm), 0 (0-10); in assay [2] (1.0 ppm) it was 4 (80-100); in assay [2] (2.5 ppm) it was 4 (80-100). Besides, the “Spore Germination Rating” value was 1 (10-40) in assay [2] (10 ppm); 0 (0-10) in assay [2] (40 ppm); 3 (60-80) in assay [3] (1.0 ppm); 3 (60-80) in assay [3] (2.5 ppm); 0 (0-10) in assay [3] (10 ppm); 0 (0-10) in assay [3] (40 ppm).
Take `Cc1cccc(C)c1Oc1nsnc(Cl)c1=O` [Compound 24, 3-chloro-5-(2,6-dimethylphenoxy)-4H--1,2,6-thiadiazin-4-one]: the “Spore Germination Rating” value is listed as 3 (60-80) in assay [1] (1.0 ppm); 1 (10-40) in assay [1] (2.5 ppm); 0 (0-10) in assay [1] (10 ppm); 0 (0-10) in assay [1] (40 ppm); 1 (10-40) in assay [2] (1.0 ppm); 0 (0-10) in assay [2] (2.5 ppm). Further, the “Spore Germination Rating” value in assay [2] (10 ppm) is given as 0 (0-10); in assay [2] (40 ppm) it was 0 (0-10); in assay [3] (1.0 ppm), 1 (10-40); in assay [3] (2.5 ppm) it was 1 (10-40); in assay [3] (10 ppm), 0 (0-10); in assay [3] (40 ppm), 0 (0-10).
Consider `Cc1cc(C)cc(Oc2nsnc(Cl)c2=O)c1` [Compound 25, 3-chloro-5-(3,5-dimethylphenoxy)-4H--1,2,6-thiadiazin-4-one], for which the “Spore Germination Rating” value in assay [1] (1.0 ppm) was 2 (40-60); in assay [1] (2.5 ppm), 1 (10-40); in assay [1] (10 ppm), 0 (0-10); in assay [1] (40 ppm), 0 (0-10); in assay [2] (1.0 ppm), 4 (80-100); in assay [2] (2.5 ppm), 2 (40-60). Also, the “Spore Germination Rating” value is given as 1 (10-40) in assay [2] (10 ppm); 0 (0-10) in assay [2] (40 ppm); 4 (80-100) in assay [3] (1.0 ppm); 2 (40-60) in assay [3] (2.5 ppm); 0 (0-10) in assay [3] (10 ppm); 0 (0-10) in assay [3] (40 ppm).
As to `Nc1ccc(Oc2nsnc(Cl)c2=O)cc1` [Compound 26, 5-(4-aminophenoxy)-3-chloro-4H--1,2,6-thiadiazin-4-one], the “Spore Germination Rating” value in assay [1] (1.0 ppm) is listed as 0 (0-10); in assay [1] (2.5 ppm), 0 (0-10); in assay [1] (10 ppm) it was 0 (0-10); in assay [1] (40 ppm), 0 (0-10); in assay [2] (1.0 ppm), 2 (40-60); in assay [2] (2.5 ppm), 3 (60-80). Besides, the “Spore Germination Rating” value in assay [2] (10 ppm) was 4 (80-100); in assay [2] (40 ppm), 2 (40-60); in assay [3] (1.0 ppm), 4 (80-100); in assay [3] (2.5 ppm), 3 (60-80); in assay [3] (10 ppm), 0 (0-10); in assay [3] (40 ppm) it was 0 (0-10).
Turning to `Nc1ccc(Oc2nsnc(Cl)c2=O)cc1` [Compound 27, 5-(4-aminophenoxy)-3-chloro-4H--1,2,6-thiadiazine-4-one hydrochloride], the “Spore Germination Rating” value in assay [1] (1.0 ppm, hydrochloride) is reported as 1 (10-40); in assay [2] (1.0 ppm, hydrochloride), 4 (80-100); in assay [2] (2.5 ppm, hydrochloride), 1 (10-40); in assay [2] (10 ppm, hydrochloride) it was 1 (10-40); in assay [2] (40 ppm, hydrochloride) it was 0 (0-10); in assay [3] (2.5 ppm, hydrochloride) it was 4 (80-100). Further, in assay [3] (10 ppm, hydrochloride), the “Spore Germination Rating” value is 3 (60-80).
As for `CNC(=O)Nc1ccc(Oc2nsnc(Cl)c2=O)cc1` [Compound 28, 3-chloro-5-[4-(3-methylureido)-phenoxy]-4H--1,2,6-thiadiazin-4-one], the “Spore Germination Rating” value in assay [1] (1.0 ppm) is recorded as 4 (80-100); in assay [1] (2.5 ppm) it was 1 (10-40); in assay [1] (10 ppm), 0 (0-10); in assay [1] (40 ppm), 0 (0-10); in assay [2] (1.0 ppm), 4 (80-100); in assay [2] (2.5 ppm), 2 (40-60). The “Spore Germination Rating” value in assay [2] (10 ppm) is 2 (40-60); in assay [2] (40 ppm) it was 2 (40-60); in assay [3] (1.0 ppm), 4 (80-100); in assay [3] (2.5 ppm), 4 (80-100); in assay [3] (10 ppm), 4 (80-100); in assay [3] (40 ppm) it was 4 (80-100).
On to `O=C(Nc1ccccc1)Nc1ccc(Oc2nsnc(Cl)c2=O)cc1` [Compound 29, 3-chloro-5-[4-(3-phenylureido)-phenoxy]-4H--1,2,6-thiadiazin-4-one], for which the “Spore Germination Rating” value in assay [1] (1.0 ppm) is on record as 3 (60-80); in assay [1] (2.5 ppm), 3 (60-80); in assay [1] (10 ppm), 2 (40-60); in assay [1] (40 ppm), 2 (40-60); in assay [2] (1.0 ppm) it was 4 (80-100); in assay [2] (2.5 ppm) it was 2 (40-60). Besides, the “Spore Germination Rating” value in assay [2] (10 ppm) was 2 (40-60); in assay [2] (40 ppm), 0 (0-10); in assay [3] (1.0 ppm), 4 (80-100); in assay [3] (2.5 ppm), 4 (80-100); in assay [3] (10 ppm), 4 (80-100); in assay [3] (40 ppm), 4 (80-100).
In the case of `O=c1c(Cl)nsnc1Oc1c(Cl)cc(Cl)cc1Cl` [Compound 30, 3-chloro-5-(2,4,6-trichlorophenoxy)-4H--1,2,6-thiadiazin-4-one], the “Spore Germination Rating” value in assay [1] (1.0 ppm), in assay [1] (2.5 ppm), in assay [1] (10 ppm), in assay [1] (40 ppm), in assay [2] (1.0 ppm) and in assay [2] (2.5 ppm) was 0 (0-10) in each case. The “Spore Germination Rating” value in assay [2] (10 ppm) is on record as 0 (0-10); in assay [2] (40 ppm) it was 0 (0-10); in assay [3] (1.0 ppm) it was 3 (60-80); in assay [3] (2.5 ppm) it was 0 (0-10); in assay [3] (10 ppm), 0 (0-10); in assay [3] (40 ppm), 0 (0-10).
In the case of `O=c1c(Cl)nsnc1Oc1c(Cl)c(Cl)c(Cl)c(Cl)c1Cl` [Compound 31, 3-chloro-5-(pentachlorophenoxy)-4H--1,2,6-thiadiazine-4-one], the “Spore Germination Rating” value in assay [1] (1.0 ppm) was 1 (10-40); in assay [1] (2.5 ppm) it was 1 (10-40); in assay [1] (10 ppm) it was 1 (10-40); in assay [1] (40 ppm), 0 (0-10); in assay [2] (1.0 ppm), 0 (0-10); in assay [2] (2.5 ppm), 0 (0-10). In addition, the “Spore Germination Rating” value is on record as 0 (0-10) in assay [2] (10 ppm); 0 (0-10) in assay [2] (40 ppm); 4 (80-100) in assay [3] (1.0 ppm); 1 (10-40) in assay [3] (2.5 ppm); 0 (0-10) in assay [3] (10 ppm); 0 (0-10) in assay [3] (40 ppm).
Regarding `O=c1c(Cl)nsnc1Oc1cccc2ccccc12` [Compound 32, 3-chloro-5(1-naphthoxy)-4H-1,2,6-thiadiazin-4-one], the “Spore Germination Rating” value in assay [1] (1.0 ppm) is 2 (40-60); in assay [1] (2.5 ppm), 0 (0-10); in assay [1] (10 ppm), 0 (0-10); in assay [1] (40 ppm) it was 0 (0-10); in assay [2] (1.0 ppm), 3 (60-80); in assay [2] (2.5 ppm), 0 (0-10). Also, the “Spore Germination Rating” value in assay [2] (10 ppm) is recorded as 0 (0-10); in assay [2] (40 ppm), 0 (0-10); in assay [3] (1.0 ppm), 3 (60-80); in assay [3] (2.5 ppm), 1 (10-40); in assay [3] (10 ppm) it was 0 (0-10); in assay [3] (40 ppm) it was 0 (0-10).
On to `O=c1c(Cl)nsnc1Oc1ccccc1Br` [Compound 34, 3-chloro-5-(2-bromophenoxy)-4H-1,2,6,-thiadiazin-4-one], for which the “Spore Germination Rating” value in assay [1] (1.0 ppm) was 2 (40-60); in assay [1] (2.5 ppm), 0 (0-10); in assay [1] (10 ppm), 0 (0-10); in assay [1] (40 ppm), 0 (0-10); in assay [2] (1.0 ppm), 0 (0-10); in assay [2] (2.5 ppm) it was 0 (0-10). For the same compound, the “Spore Germination Rating” value in assay [2] (10 ppm) is on record as 0 (0-10); in assay [2] (40 ppm), 0 (0-10); in assay [3] (1.0 ppm), 4 (80-100); in assay [3] (2.5 ppm), 1 (10-40); in assay [3] (10 ppm), 0 (0-10); in assay [3] (40 ppm) it was 0 (0-10).
For `O=c1c(Cl)nsnc1Oc1ccc(O)cc1` [Compound 35, 3-chloro-5-(4-hydroxyphenoxy)-4H-1,2,6-thiadiazin-4-one], the “Spore Germination Rating” value in assay [1] (1.0 ppm) is recorded as 4 (80-100); in assay [1] (2.5 ppm), 4 (80-100); in assay [1] (10 ppm), 4 (80-100); in assay [1] (40 ppm) it was 3 (60-80); in assay [2] (1.0 ppm), 0 (0-10); in assay [2] (2.5 ppm), 0 (0-10). In addition, the “Spore Germination Rating” value in assay [2] (10 ppm) is 0 (0-10); in assay [2] (40 ppm) it was 0 (0-10); in assay [3] (1.0 ppm), 4 (80-100); in assay [3] (2.5 ppm), 4 (80-100); in assay [3] (10 ppm) it was 3 (60-80); in assay [3] (40 ppm) it was 0 (0-10).
As for `O=C(Nc1ccccc1)Oc1ccc(Oc2nsnc(Cl)c2=O)cc1` [Compound 37, 3-chloro-5-[4-(phenylaminocarbonyloxy)phenoxy]-4H-1,2,6,-thiadiazin-4-one], the “Spore Germination Rating” value in assay [1] (1.0 ppm) is recorded as 4 (80-100); in assay [1] (2.5 ppm) it was 4 (80-100); in assay [1] (10 ppm) it was 4 (80-100); in assay [1] (40 ppm) it was 4 (80-100); in assay [2] (1.0 ppm), 4 (80-100); in assay [2] (2.5 ppm), 2 (40-60). Also, the “Spore Germination Rating” value is given as 1 (10-40) in assay [2] (10 ppm); 1 (10-40) in assay [2] (40 ppm); 4 (80-100) in assay [3] (1.0 ppm); 4 (80-100) in assay [3] (2.5 ppm); 4 (80-100) in assay [3] (10 ppm); 3 (60-80) in assay [3] (40 ppm).
